# Assay results as given in patent US20250360145A1, “CSF-1R INHIBITORS AND USES THEREOF” (Myrobalan Therapeutics, Inc., priority 2022, published 2025).
# Like-named read-outs stand apart in the source and are kept apart here.
# Key:
# [1] = Plasma protein binding study; type: in vitro ADME; settings: mouse plasma, equilibrium dialysis 4 hours; read-out: PPB-mouse (Bound) (%) (converted)
# Protocol: On the day of experiment, the plasma was thawed under running cold tap water and centrifuged at 3220×g for 5 min to remove any clots. The pH value was checked and recorded. Only plasma within range of pH 7.0 to pH 8.0 was used. Pretreat the dialysis membrane according to the manufacturer's instructions: the dialysis membrane strips were soaked in ultra pure water at room temperature for approximately 1 hr. After that, each membrane strip that contains 2 membranes was separated and soaked in ethanol:water (20:80 v:v) for approximately 20 min, after which it was ready for use or was stored in the solution at 2-8° C. for up to 1 month. Prior to the experiment, the membrane was rinsed and soaked for 20 min in ultra pure water for use. Working solutions (400 μM) of test compound and control compound were prepared. Aliquots of working solutions (3 μL) were spiked into blank matrix (597 μL) to achieve final concentrations and mixed thoroughly. Aliquots of 50 μL loading matrix containing test compound or control compound in triplicate was transferred to Sample Collection Plate, respectively. The samples were matched with opposite blank buffer to obtain a final volume of 100 μL with a volume ratio of matrix:Dialysis Buffer (1:1, v:v) in each well immediately. The stop solution was added to these T0 samples of test compound and control compound. The plate was sealed and shaked at 800 rpm for 10 min. Then these T0 samples were stored at 2-8° C. pending further process along with other post-dialysis samples. The dialysis instrument was assembled following manufacture's instructions. An aliquot of 100 μL of the loading matrix containing test compound or control compound was transferred to the donor side of each dialysis well in triplicate and 100 μL of the Dialysis Buffer was loaded to the receiver side of the well. Then the plate was rotated at approximately 100 rpm in a humidified incubator with 5% CO2 at 37±1° C. for 4 hours. At the end of the dialysis, aliquots of 50 μL samples from the buffer side and matrix side of the dialysis device were taken into new 96-well plates (Sample Collection Plates). An equal volume of opposite blank matrix (buffer or matrix) in each sample was added to reach a final volume of 100 μL with volume ratio of matrix:Dialysis Buffer at 1:1 (v:v) in each well. All samples were further processed by protein precipitation for LC/MS/MS analysis.
# CSF-1R = CSF-1R (Homo sapiens (Human), UniProt P07333); assay: Biochemical HTRF kinase assay, CSF-1R; settings: recombinant human CSF-1R;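 further: enzyme incubated with inhibitor plus a substrate and ATP mix for one hour at room temperature before HTRF detection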
# CSF-1R, sequence (P07333 20-972): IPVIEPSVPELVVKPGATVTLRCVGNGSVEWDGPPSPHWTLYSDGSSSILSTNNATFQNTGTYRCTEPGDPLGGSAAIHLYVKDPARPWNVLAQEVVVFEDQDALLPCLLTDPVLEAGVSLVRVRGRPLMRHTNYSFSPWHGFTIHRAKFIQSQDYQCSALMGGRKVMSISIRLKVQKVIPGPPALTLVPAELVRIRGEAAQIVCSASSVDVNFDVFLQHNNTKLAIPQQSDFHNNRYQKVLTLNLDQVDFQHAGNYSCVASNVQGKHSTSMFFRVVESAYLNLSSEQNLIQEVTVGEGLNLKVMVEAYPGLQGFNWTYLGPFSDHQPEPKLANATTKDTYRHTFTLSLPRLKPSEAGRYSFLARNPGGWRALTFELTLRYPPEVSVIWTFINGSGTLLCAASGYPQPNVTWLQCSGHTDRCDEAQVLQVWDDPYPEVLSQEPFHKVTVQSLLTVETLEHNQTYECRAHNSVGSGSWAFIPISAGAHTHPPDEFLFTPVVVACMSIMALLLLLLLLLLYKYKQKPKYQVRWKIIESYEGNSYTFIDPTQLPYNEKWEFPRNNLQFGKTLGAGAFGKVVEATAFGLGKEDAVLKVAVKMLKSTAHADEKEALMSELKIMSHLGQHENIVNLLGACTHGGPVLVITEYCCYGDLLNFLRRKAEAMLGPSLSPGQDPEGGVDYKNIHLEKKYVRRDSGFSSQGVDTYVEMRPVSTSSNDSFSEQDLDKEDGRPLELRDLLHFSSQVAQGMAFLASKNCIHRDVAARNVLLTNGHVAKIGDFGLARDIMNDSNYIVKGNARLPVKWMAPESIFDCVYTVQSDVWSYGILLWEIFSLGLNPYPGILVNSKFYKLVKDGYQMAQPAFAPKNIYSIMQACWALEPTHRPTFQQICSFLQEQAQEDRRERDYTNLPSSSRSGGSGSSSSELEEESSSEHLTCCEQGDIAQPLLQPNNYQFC
# PDGFRβ = PDGFRβ (Homo sapiens (Human), UniProt P09619); assay: Biochemical HTRF kinase assay, PDGFRβ; settings: for IC50: recombinant human protein, read-out: PDGFR-1β IC50; for PDGFR-1β Fold: selectivity: IC50 of PDGFR-1β as multiple of IC50 of CSF-1R;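 on all read-outs here: kinase reaction with substrate/ATP mix run 1 h at room temperature in 384-well format, HTRF signal detection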
# PDGFRβ, sequence (P09619 33-1106): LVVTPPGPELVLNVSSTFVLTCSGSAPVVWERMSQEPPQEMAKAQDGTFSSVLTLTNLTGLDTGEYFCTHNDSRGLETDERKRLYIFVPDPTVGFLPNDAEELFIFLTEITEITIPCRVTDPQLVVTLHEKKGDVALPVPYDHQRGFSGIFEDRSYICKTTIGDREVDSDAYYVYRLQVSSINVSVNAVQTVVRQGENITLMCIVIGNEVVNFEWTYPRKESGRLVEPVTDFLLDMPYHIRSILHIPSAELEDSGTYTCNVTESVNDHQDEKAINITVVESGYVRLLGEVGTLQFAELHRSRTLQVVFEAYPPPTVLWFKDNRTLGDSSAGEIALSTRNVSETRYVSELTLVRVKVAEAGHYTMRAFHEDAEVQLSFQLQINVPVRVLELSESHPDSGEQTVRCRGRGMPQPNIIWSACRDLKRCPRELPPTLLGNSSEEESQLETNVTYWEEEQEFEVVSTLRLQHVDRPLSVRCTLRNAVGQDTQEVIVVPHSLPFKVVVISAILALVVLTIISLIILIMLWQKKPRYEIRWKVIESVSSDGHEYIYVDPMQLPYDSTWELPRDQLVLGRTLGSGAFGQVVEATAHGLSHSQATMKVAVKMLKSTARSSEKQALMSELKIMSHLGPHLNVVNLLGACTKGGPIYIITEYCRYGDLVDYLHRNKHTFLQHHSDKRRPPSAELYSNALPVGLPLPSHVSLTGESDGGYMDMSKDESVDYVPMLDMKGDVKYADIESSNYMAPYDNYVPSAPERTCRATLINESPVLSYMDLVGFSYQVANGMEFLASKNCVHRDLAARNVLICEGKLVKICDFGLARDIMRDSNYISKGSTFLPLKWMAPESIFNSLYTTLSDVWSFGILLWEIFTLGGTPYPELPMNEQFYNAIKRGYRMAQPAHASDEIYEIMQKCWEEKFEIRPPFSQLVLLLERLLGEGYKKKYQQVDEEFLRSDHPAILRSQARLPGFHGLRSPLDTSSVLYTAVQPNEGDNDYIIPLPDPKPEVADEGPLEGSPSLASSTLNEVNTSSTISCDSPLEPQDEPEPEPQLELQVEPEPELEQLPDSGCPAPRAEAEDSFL
# [2] = tested on: human iPSC-derived microglia (hiPSC-MG); assay: hiPSC-MG survival (Presto-Blue viability); type: cell-based; settings: 48 h treatment; for hiPSC-MG survival: FIG. 7B
# [3] = Brain protein binding study; type: in vitro ADME; settings: mouse brain homogenate, equilibrium dialysis 4 hours
# Protocol: On the day of experiment, brain homogenate was thawed in water bath at room temperature and then incubated at 37° C. for 10 min before use. Pretreat the dialysis membrane according to the manufacturer's instructions: the dialysis membrane strips were soaked in ultra pure water at room temperature for approximately 1 hr. After that, each membrane strip that contains 2 membranes was separated and soaked in ethanol:water (20:80 v:v) for approximately 20 min, after which it was ready for use or was stored in the solution at 2-8° C. for up to 1 month. Prior to the experiment, the membrane was rinsed and soaked for 20 min in ultra pure water for use. Then working solutions (400 μM) of test compound and control compound were prepared. Aliquots of working solutions (3 μL) were spiked into blank matrix (597 μL) to achieve final concentrations and mixed thoroughly. Aliquots of 50 μL loading matrix containing test compound or control compound in triplicate was transferred to Sample Collection Plate, respectively. The samples were matched with opposite blank buffer to obtain a final volume of 100 μL with a volume ratio of matrix:Dialysis Buffer (1:1, v:v) in each well immediately. The stop solution was added to these T0 samples of test compound and control compound. The plate was sealed and shaked at 800 rpm for 10 min. Then these T0 samples were stored at 2-8° C. pending further process along with other post-dialysis samples. The dialysis instrument was assembled following manufacture's instructions. An aliquot of 100 μL of the loading matrix containing test compound or control compound was transferred to the donor side of each dialysis well in triplicate and 100 μL of the Dialysis Buffer was loaded to the receiver side of the well. Then the plate was rotated at approximately 100 rpm in a humidified incubator with 5% CO2 at 37±1° C. for 4 hours. At the end of the dialysis, aliquots of 50 μL samples from the buffer side and matrix side of the dialysis device were taken into new 96-well plates (Sample Collection Plates). An equal volume of opposite blank matrix (buffer or matrix) in each sample was added to reach a final volume of 100 μL with volume ratio of matrix:Dialysis Buffer at 1:1 (v:v) in each well. All samples were further processed by protein precipitation for LC/MS/MS analysis.
# [4] = In vivo PK study (plasma and brain exposure); design: species or system CD1 mouse; settings: for Kp uu / half-life / AUC(0-t) / AUC(0-inf) / clearance / Vd / bioavailability / Cmax / Tmax: male; for Kp uu: CD1, brain, BBB penetration; for half-life: CD1, mouse; for clearance: read-out: IV-2mpk CL (converted); for Vd: read-out: IV-2mpk VSS; for bioavailability: p.o. 45 mg/kg vs i.v. 2 mg/kg; for Cmax: read-out: PO-45mpk Cmax; for Tmax: read-out: PO-45mpk Tmax
# Protocol: The PK profiles were determined in CD1 mouse, and all the procedures and protocols were in accordance with the National Institutes of Health Guide for the Care and Use of Laboratory Animals. The CD1 mouse were purchased from JH Laboratory Animal Co. LTD. The CD1 mouse (23-30 g, 6-8 weeks, male) were randomized and divided into five groups consisting of 21 mouse per group. The test compounds that have been formulated were subjected to PK studies. The test compounds were administrated via p.o. at 45 mg/kg and i.v. at 2 mg/kg. […] The blood samples were placed on wet ice, and serum was collected after centrifugation. Serum samples were frozen and stored at −70° C. The brain samples were dried on filtrate paper, and snap frozen on dry ice and further stored at −70° C. Then, the blood samples and brain samples were further analyzed by LC-MS/MS (Triple Quad 6500+).
# c-Kit = c-Kit (Homo sapiens (Human), UniProt P10721); assay: Biochemical HTRF kinase assay, c-Kit; settings: for IC50: recombinant human protein, read-out: cKit IC50; for cKit Fold: selectivity: IC50 of cKit as multiple of IC50 of CSF-1R;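 on all read-outs here: enzyme reaction with substrate and ATP run in 384-well plates for 1 hour at room temperature, kinase activity detected by HTRF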
# c-Kit, sequence (P10721 26-976): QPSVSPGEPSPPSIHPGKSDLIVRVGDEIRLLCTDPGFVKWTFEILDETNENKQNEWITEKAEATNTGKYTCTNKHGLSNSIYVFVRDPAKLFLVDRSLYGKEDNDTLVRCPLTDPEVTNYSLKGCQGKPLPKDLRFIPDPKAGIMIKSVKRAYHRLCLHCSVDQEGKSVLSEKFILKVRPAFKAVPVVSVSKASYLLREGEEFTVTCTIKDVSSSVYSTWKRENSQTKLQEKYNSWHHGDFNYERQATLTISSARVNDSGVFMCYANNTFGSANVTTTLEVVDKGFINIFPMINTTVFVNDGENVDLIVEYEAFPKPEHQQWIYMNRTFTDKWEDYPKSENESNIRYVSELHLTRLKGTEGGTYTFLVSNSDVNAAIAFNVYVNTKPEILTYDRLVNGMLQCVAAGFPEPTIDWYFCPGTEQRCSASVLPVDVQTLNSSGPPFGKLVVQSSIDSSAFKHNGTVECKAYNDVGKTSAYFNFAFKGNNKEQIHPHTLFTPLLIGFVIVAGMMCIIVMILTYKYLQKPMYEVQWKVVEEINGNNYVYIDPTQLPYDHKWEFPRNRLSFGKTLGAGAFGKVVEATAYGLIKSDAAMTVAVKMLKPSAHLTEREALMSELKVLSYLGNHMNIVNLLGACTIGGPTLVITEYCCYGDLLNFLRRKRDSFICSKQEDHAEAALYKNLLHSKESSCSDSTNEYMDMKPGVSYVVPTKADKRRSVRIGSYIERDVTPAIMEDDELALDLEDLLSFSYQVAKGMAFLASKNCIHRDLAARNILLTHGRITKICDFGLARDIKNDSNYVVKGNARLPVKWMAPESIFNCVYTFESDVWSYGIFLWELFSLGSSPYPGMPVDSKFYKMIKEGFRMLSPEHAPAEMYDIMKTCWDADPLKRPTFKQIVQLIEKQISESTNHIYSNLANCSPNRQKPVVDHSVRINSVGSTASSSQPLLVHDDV
# FLT3 = FLT3 (Homo sapiens (Human), UniProt P36888); assay: Biochemical HTRF kinase assay, FLT3; settings: for IC50: recombinant human protein; for FLT3 Fold: selectivity: IC50 of FLT3 as multiple of IC50 of CSF-1R
# FLT3, sequence (P36888 27-993): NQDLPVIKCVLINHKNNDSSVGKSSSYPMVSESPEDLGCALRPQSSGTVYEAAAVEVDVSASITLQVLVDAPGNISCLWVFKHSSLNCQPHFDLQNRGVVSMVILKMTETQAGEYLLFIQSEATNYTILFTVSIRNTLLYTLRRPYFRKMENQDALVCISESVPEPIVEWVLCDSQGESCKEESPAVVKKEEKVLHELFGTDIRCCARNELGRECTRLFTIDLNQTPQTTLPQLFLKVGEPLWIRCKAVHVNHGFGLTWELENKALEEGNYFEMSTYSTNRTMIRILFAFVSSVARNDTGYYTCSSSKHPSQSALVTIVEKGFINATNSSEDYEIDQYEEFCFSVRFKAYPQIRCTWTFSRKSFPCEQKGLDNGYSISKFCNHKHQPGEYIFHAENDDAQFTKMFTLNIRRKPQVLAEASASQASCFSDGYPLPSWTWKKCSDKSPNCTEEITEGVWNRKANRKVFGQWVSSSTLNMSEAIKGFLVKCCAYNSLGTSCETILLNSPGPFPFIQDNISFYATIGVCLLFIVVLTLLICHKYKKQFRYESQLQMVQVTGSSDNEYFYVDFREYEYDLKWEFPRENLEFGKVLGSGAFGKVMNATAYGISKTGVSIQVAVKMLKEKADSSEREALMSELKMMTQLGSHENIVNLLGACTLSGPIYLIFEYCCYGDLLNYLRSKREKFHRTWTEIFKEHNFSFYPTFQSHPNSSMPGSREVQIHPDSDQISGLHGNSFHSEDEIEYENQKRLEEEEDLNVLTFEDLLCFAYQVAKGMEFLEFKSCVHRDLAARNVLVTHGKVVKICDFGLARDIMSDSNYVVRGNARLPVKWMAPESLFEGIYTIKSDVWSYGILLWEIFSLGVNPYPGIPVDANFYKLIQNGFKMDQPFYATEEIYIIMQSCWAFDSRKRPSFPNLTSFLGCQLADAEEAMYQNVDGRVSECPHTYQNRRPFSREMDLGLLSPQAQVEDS
# [5] = serum, iv, 2 mg/kg, CD1 mouse, i.v. 2 mg/kg, read-out: IV-2mpk T1/2 (converted)
# [6] = serum, po, 45 mg/kg, CD1 mouse, p.o. 45 mg/kg, read-out: PO-45mpk T1/2 (converted)
# [7] = CD1, po, mouse, p.o. 45 mg/kg, brain, read-out: PO-45mpk AUClast-brain
# [8] = CD1, po, mouse, p.o. 45 mg/kg, plasma, Tables 7 and 8, read-out: PO-45mpk AUClast-plasma
# [9] = serum, iv, CD1 mouse, i.v. 2 mg/kg, read-out: IV-2mpk AUCInf
# [10] = serum, iv, CD1 mouse, i.v. 2 mg/kg, read-out: IV-2mpk AUClast
# [11] = serum, iv, CD1 mouse, i.v. 2 mg/kg
# [12] = serum, po, CD1 mouse, p.o. 45 mg/kg, Tables 5 and 6, read-out: PO-45mpk AUClast
# [13] = serum, po, CD1 mouse, p.o. 45 mg/kg, read-out: PO-45mpk AUCInf
# [14] = serum, po, CD1 mouse, p.o. 45 mg/kg
Structure (SMILES),"fraction unbound at 4 h, 2 µM [1]",IC50 (CSF-1R; Table 2),IC50 (CSF-1R; Table 3),IC50 (PDGFRβ),PDGFR-1β Fold (PDGFRβ),hiPSC-MG survival [2],BPB-mouse (Bound) (%) [3],"Kp uu ([4]; po, mouse, p.o. 45 mg/kg)","half-life [4, 5]","half-life [4, 6]","AUC(0-t) [4, 7]","AUC(0-t) [4, 8]","AUC(0-inf) [4, 9]","AUC(0-t) [4, 10]","clearance [4, 11]","Vd [4, 11]","bioavailability ([4]; serum, po, CD1 mouse)","AUC(0-t) [4, 12]","Cmax [4, 14]","Tmax [4, 14]",other results
"COc1ccc(COc2ncc(Cc3ccnc4cc(-c5ccn(C)n5)cnc34)cc2OC)nc1 [Example 134, 8-((5-methoxy-6-((5-methoxypyridin-2-yl)methoxy)pyridin-3-yl)methyl)-3-(1-methyl-1H-pyrazol-3-yl)-1,5-naphthyridine]",0.008,6.6 nM,6.6 nM,394 nM,59.7 fold,dose-dependent inhibition of hiPSC-MG survival,98.8%,0.75,1.39 h,1.86 h,44400 ng·h/mL,88400 ng·h/mL,1890 ng·h/mL,1860 ng·h/mL,17.7 mL/min/kg,1.45 L/kg,227%,96400 ng·h/mL,18100 ng/mL,0.5 h,"hiPSC-MG survival IC50 compared with BLZ945 [2]: lower than that of BLZ945; AUC(0-inf) [4, 13]: 96500 ng·h/mL"
"COc1cnc2c(Cc3cnc(OCc4cc5n(n4)C[C@H](OC)C5)c(OC)c3)ccnc2c1 [Example 136, (R)-3-methoxy-8-((5-methoxy-6-((5-methoxy-5,6-dihydro-4H-pyrrolo[1,2-b]pyrazol-2-yl)methoxy)pyridin-3-yl)methyl)-1,5-naphthyridine]",0.005,5 nM,5 nM,> 1000 nM,>100 fold,dose-dependent inhibition of hiPSC-MG survival,97.3%,0.94,0.777 h,,16200 ng·h/mL,93200 ng·h/mL,4940 ng·h/mL,4940 ng·h/mL,6.75 mL/min/kg,0.274 L/kg,77.1%,85700 ng·h/mL,51200 ng/mL,0.5 h,IC50 (c-Kit): > 1000 nM; cKit Fold (c-Kit): >100 fold
COc1ccc(COc2ncc(Cc3ccnc4cc(N5CCN(C)CC5)cnc34)cc2OC)nc1 [Example 116],0.042,3 nM,3 nM,> 1000 nM,>100 fold,,95.5%,0.99,6.42 h,4.87 h,4250 ng·h/mL,4620 ng·h/mL,578 ng·h/mL,566 ng·h/mL,57.7 mL/min/kg,9.54 L/kg,42.1%,5370 ng·h/mL,2310 ng/mL,0.25 h,"IC50 (c-Kit): > 1000 nM; cKit Fold (c-Kit): >100 fold; AUC(0-inf) [4, 13]: 5480 ng·h/mL; IC50 (FLT3): > 1000 nM; FLT3 Fold (FLT3): >100 fold"
"COc1cnc2c(Cc3cnc(OCc4cc5n(n4)CCOC5)c(OC)c3)ccnc2c1 [Example 73, 2-(((3-methoxy-5-((7-methoxy-1,5-naphthyridin-4-yl)methyl)pyridin-2-yl)oxy)methyl)-6,7-dihydro-4H-pyrazolo[5,1-c][1,4]oxazine]",0.01,3.3 nM,3.3 nM,> 1000 nM,>100 fold,dose-dependent inhibition of hiPSC-MG survival,95.5%,0.67,2.52 h,1.57 h,31800 ng·h/mL,214000 ng·h/mL,9090 ng·h/mL,9090 ng·h/mL,3.67 mL/min/kg,0.461 L/kg,98.8%,202000 ng·h/mL,100000 ng/mL,0.5 h,"IC50 (c-Kit): > 1000 nM; cKit Fold (c-Kit): >100 fold; hiPSC-MG survival IC50 compared with BLZ945 [2]: lower than that of BLZ945; IV-2mpk T1/2 ([4]; CD1 mouse, i.v. 2 mg/kg): 2.56 h; AUC(0-inf) [4, 13]: 202000 ng·h/mL; IC50 (FLT3): > 1000 nM; FLT3 Fold (FLT3): >100 fold"
